Calls of active or inactive are those of the source. How the calls were made is not given here.
The molecules below were run against Genome polyprotein (West Nile virus) (UniProt P06935) (assay: inhibitors of WNV NS2B-NS3 protease, dose response, biochemical, confirmation (AID 653)). Conditions: WNV NS2B-NS3 protease enzymatic assay, fluorescence.
Chain of Genome polyprotein (West Nile virus) (P06935 1371-1501 limits assumed): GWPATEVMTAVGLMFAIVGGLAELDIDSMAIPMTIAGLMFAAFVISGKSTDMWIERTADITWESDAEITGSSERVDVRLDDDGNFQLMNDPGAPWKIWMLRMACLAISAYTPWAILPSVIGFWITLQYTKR
Chain of Genome polyprotein (West Nile virus) (P06935 1502-1679 limits assumed): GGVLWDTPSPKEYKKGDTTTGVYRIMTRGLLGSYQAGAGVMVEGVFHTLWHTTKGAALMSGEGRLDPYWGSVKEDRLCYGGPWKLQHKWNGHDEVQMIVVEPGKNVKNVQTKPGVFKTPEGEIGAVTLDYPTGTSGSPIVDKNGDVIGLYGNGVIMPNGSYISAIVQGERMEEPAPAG

Structure (SMILES) | IC50
C/C(CC1(O)C(=O)N(Cc2ccccc2)c2ccccc21)=N\O (stereo not given) | > 50 µM (inactive)
COC(=O)CSC1=C(C#N)C(c2ccc(C)cc2)C2=C(CCCC2=O)N1 (stereo not given) | > 50 µM (inactive)
COc1ccc(N=CC2=C(O)CCCC2=O)cc1 | 34.1 µM
COc1cccc(NC(=O)CSc2nc3n[nH]c(C)c3c(=N)n2-c2cccc(OC)c2)c1 | > 50 µM (inactive)
COc1ccc(OC)c(C2C(C(N)=O)=C(C)Nc3nc(-c4cccc(Cl)c4)nn32)c1 (stereo not given) | > 50 µM (inactive)
